Measured values: patent US10596216B2, “Use of a Withania extract for the treatment of amyloid-related diseases” (Ethnodyne, priority 2015, dated 2020)

Tested on: rat primary cortical cultures
Assay: Neuroprotective effect following exposure to glutamate (Example 12)
Type: cell-based
Conditions: glutamate 40 μM, 20 min, primary cortical neuron culture
Protocol: This study investigated the neuroprotective effect of the composition WEB-2 on rat primary cortical cultures following exposure to glutamate (40 μM, 20 min application), an in vitro AD model.
Pregnant Wistar females rat (JanvierLabs, France) at 15 days of gestation were killed by cervical dislocation. The foetuses were prepared as in example 11.
Once obtained, the cells were seeded at a density of 30,000 per well in 96-well plates precoated with poly-L-lysine (Batch: 3102256, Corning Biocoat) and were cultured at 37° C. in an air (95%)-CO2 (5%) incubator. The medium was changed every 2 days. The cortical neurons were intoxicated with glutamate solution.
On day 13 after culture, glutamate (Batch: 061M0030V, Sigma) was added into cell culture to a final concentration of 40 μM diluted in control medium for 20 min. After 20 min, the cells were washed-out and new fresh medium containing or not WEB-2 was added for 48 h additional time. […]
The immunolabeled cultures were automatically examined with ImageXpress equipped with a LED at ×20 magnification. For each condition (6 culture wells), 30 automatically fields per well (representing ˜80% of the total surface of the well) were analyzed. The total number of neurons and neurite length were automatically analyzed using MetaXpress software.

Structure (SMILES): N[C@@H](CCC(=O)O)C(=O)O [Glutamate, glutamate]
- neurite network loss induced: neurite network loss
- neuronal death induced: significant neuronal death
